Measurements from US11220491B2, “Photoprotective compositions containing Malassezia-derived compounds and/or chemical analogs thereof” (Versicolor Technologies, LLC, priority 2018, dated 2022).
“Also recorded” adds a separate entry of the source. Read-outs that look alike come from different tables or passages of the source.

What was measured:
[1] = biological target: T1, arylhydrocarbon receptor (AhR) (Homo sapiens, UniProt P35869); assay: HepG2-AhR-Luciferase assay; settings: EC50 (uM), 24 hours of treatment
T1 sequence (P35869 11-848): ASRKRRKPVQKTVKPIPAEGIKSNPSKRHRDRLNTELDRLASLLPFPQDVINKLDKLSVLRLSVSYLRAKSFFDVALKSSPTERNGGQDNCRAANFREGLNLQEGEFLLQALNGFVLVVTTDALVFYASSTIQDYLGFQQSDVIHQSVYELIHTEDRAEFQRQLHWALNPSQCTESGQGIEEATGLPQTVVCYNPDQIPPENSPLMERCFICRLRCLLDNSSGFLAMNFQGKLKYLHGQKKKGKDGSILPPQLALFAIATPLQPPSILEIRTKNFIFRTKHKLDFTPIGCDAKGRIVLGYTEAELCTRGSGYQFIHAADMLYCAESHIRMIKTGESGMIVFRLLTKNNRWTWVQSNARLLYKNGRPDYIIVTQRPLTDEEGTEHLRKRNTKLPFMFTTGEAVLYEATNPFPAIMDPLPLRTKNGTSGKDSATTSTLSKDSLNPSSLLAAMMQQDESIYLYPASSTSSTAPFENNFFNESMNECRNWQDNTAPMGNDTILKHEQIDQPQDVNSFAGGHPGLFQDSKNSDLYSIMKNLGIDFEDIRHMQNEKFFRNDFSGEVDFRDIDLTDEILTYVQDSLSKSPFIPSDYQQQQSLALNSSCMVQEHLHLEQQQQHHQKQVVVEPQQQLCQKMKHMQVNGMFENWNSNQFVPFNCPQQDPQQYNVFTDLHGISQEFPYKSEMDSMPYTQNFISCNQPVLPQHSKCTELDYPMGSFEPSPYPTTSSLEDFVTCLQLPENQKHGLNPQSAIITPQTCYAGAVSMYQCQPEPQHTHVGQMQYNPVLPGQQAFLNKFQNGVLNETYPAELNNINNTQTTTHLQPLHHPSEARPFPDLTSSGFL
Description: HepG2-AhR-Luc cells were purchased from Pharmaron, One-Glo Luciferase assay system was purchased from Promega. DMEM was purchased from Hyclone, and penicillin/streptomycin was purchased from Solabio.
Culture media for stably transfected HepG2 cells was prepared by supplementing DMEM with high glucose and L-glutamine, as well as 10% FBS.
HepG2-AhR-Luc cells were cultured in T-75 flasks at 37° C., 5% CO2, and 95% relative humidity. Cells were allowed to reach 80-90% confluence before detachment and splitting.
Cultivated cells were rinsed with 5 mL PBS. PBS was aspirated away, 1.5 mL trypsin was added to the flask, and cells were incubated at 37° C. for approximately 5 minutes or until the cells detached and floated. Trypsin was inactivated by adding excess serum-containing media.
The cell suspension was transferred to a conical tube and centrifuged at 120 g for 10 minutes to pellet the cells. Cells were resuspended in seeding media at a proper density. 40 μL of cells were transferred to a 384-well culture plate (5×10^3 cells/well). Plates were placed in the incubator at 37° C. for 24 hours.
Afterward, stock solutions of test compounds and omeprazole positive control were prepared. Compound solutions were transferred into the assay plate using Echo550. The plate was then placed back into the incubator for compound treatment.
Later, after 24 hours of treatment, the plate was removed from the incubator and allowed to cool at ambient temperature. 30 μL One-Glo reagent equal to that of the culture medium was added in each well. Cells were allowed to lyse for at least 3 minutes, and then measured in a luminometer.
Dose responses were graphed using the non-linear regression analysis in XLfit and EC50 values were also calculated.

MelanoDerm™ Skin Model [2] = assay: MelanoDerm Study 2, melanin assay (Example 19); assay type: cell-based, human; settings: 500 μM, 7-day period
Description: The study also evaluated the potential dermal irritation induced by each test article as measured by the conversion of MTT by MelanoDerm™ tissues after repeated exposures to the test articles, over the 7 day treatment period.
The test articles, Malassezin (CV-8684), Compound B (CV-8877), Compound E (AB12508), Compound H (AB12509), an unknown composition, Compound A5 (CV-8819), and 052 (AB12976), were prepared by diluting the stock concentrations with EPI-100-LLMM to final concentrations of 200 μM and 500 μM. The test article, Compound I (CV-8686), was prepared by diluting the stock concentration to 500 μM. All of the dilutions were vortexed for at least 1 minute, and then heated in a water bath at 37°±1° C. for 15 minutes. The dilutions were then vortexed again for at least 1 minute prior to being dosed on the tissues. The test article and solvent control, DMSO, was prepared as a 0.5% (v/v) dilution in EPI-100-LLMM. The test article dilution was vortexed for at least 1 minute and then again for at least 1 minute prior to being applied onto the tissues. […]
The raw absorbance data were captured. The OD490 value of each melanin standard was determined. […] The corrected OD490 value of each melanin standard concentration was determined by subtracting the OD490 value of the blank well from the OD490 value of the melanin standard concentration. […]

[3] = system: Caspase 3/7 in WM115 cells; assay: Caspase-Glo 3/7 assay (Example 16); assay type: cell-based; settings: 100 uM
Description: (§1) Cells were harvested and the cell number was determined using a Countess Cell Counter. The cells were diluted with culture medium to the desired density.
(§2) Test compounds were dissolved in DMSO to 30 mM stock. […] After the indicated incubation time, the plates were removed from the incubator for detection.
(§3) Caspase-Glo 3/7 reagents also were thawed and equilibrated to room temperature before the experiment.

[4] = system: Caspase 3/7 in MeWo cells; assay: Caspase-Glo 3/7 assay (Example 16); assay type: cell-based; settings: 100 uM
Description: as §1, §2, §3

[5] = system: UV-induced erythema of the subject's skin; assay: In vivo photoprotection proof of concept, UVB irradiation of treated skin sites (Example 38); set-up: species or system human
From the text: The Malassezin 1% formulation used in this study contained the following ingredients: Water (aqua)—65.939%; Dimethyl isosorbide—20.000%; Olive Oil Glycereth-8 Esters—3.000%; Glycerin—2.991%; Coconut Alkanes—2.700%; Hydroxyethyl Acrylate/Sodium Acryloyldimethyl Taurate Copolymer—1.700%; Malassezin—1.000%; Pentylene Glycol—1.000%; Phenoxyethanol—0.640%; Coco-Caprylate/Caprate—0.300%; Caprylyl Glycol—0.200%; Chlorphenesin—0.160%; Sorbitan Isostearate—0.140%; Tocopherol—0.100%; Polysorbate 60-0.080%; and Disodium EDTA—0.050%.
A Skin Type IV […] was included in this Proof of Concept study.
A template of 6 squares was placed on the lower left back (1.5 cm×1.5 cm) of the test subject.
Twenty-four hours after irradiation, the subject returned for MED assessment.
A second right lower square was treated twice daily from day 4 to day 7, and a third medial square for one application on day 7. The product vehicle was applied for 7 days twice daily on the left back. The subject returned to the research center for irradiation on day 7. Each test site was irradiated with 120 mJ of UVB exposure. The subject returned in 24 hours for assessment of phototoxicity/photoprotection.
The subject continued the experiment, receiving Malassezin 1% for a total of 14 days. […]

[6] = biological target: T1, arylhydrocarbon receptor (AhR); set-up: HepG2 cells stably transfected with an AhR-responsive luciferase reporter gene plasmid; host or cells: HepG2-AhR-Luc (HepG2 stably transfected with an AhR-responsive luciferase reporter plasmid); settings: cited from earlier work
MelanoDerm™ Skin Model [7] = assay: MelanoDerm assay, pigmentation of tissues (Example 12); assay type: cell-based, human; settings: day 7; 200 μM and 50 μM
Description: The MelanoDerm™ Skin Model will be exposed to the test article for a total of 7 days. […] (Berridge et al., 1996).
Ten and 25 microliters, respectively, of each test article will be applied to each tissue. Twenty five microliters of the positive and negative controls, respectively, will be applied to each tissue.
The definitive assay will include a negative control and a positive control. The MelanoDerm™ tissues designated to the assay negative control will be treated with 25 μL of sterile, deionized water. Twenty five microliters of 1% Kojic acid (prepared in sterile, deionized water and filtered at the time of preparation) will be used to dose the tissues designated to the assay positive control. The 1% Kojic acid will be stored in a tube covered with aluminum foil until used within 2 hours of preparation. The negative and positive control exposure times will be identical to those used for the test articles.
The exact procedures used to collect images of the tissues will be specified in the study workbook and report.
The trial will be conducted over a 7-day timeframe.
The exact procedures used to collect images of the tissues will be specified in the study workbook and report. Then, the viability of the tissues will be determined by MTT reduction as indicated below.

[8] = system: primary human melanocytes; settings: cited from earlier work
B16F1 cells = assay: Annexin V assay (Example 16); assay type: cell-based; settings: 100 uM
Description: as §1, §2
(§4) For the Annexin V assay, plates were removed from the incubator and culture media was removed. […] Plates were read using ImageXpress Nano.

MeWo cells [9] = assay: Annexin V assay (Example 16); assay type: cell-based; settings: 100 uM
Description: as §1, §2, §4

WM115 cells [10] = assay: Annexin V assay (Example 16); assay type: cell-based; settings: 100 uM
Description: as §1, §2, §4

MeWo cells [11] = assay: Cell morphology after treatment (Example 6); assay type: cell-based; settings: 100 μM, 6 hours
WM115 cells [12] = assay: Cell morphology after treatment (Example 6); assay type: cell-based; settings: 100 μM, 6 hours
[13] = CellTiter-Glo cell viability assay (Example 9); assay type: cell-based; settings: human; after 24-hour treatment; read-out: inhibition of cell viability
Description: (§5) CellTiter-Glo® 2.0 assay was purchased from Promega. Cell seeding, preparation of the compound source plate, and exposure of cells to test compounds were performed as described in Example 8.
(§6) CellTiter-Glo® reagents were thawed and equilibrated to room temperature before the experiment. 40 μL of CellTiter-Glo® reagent was then added to each well for detection (at 1:1 ratio to culture medium). The plates were then incubated at room temperature for 30 minutes and read using EnSpire (PerkinElmer) plate reader. The remaining activity was calculated according to the following formula: Remaining Activity (%)=100%×(Lumsample−Lumbkg)/(Lumvehicle−Lumbkg).

[14] = CellTiter-Glo cell viability assay (Example 9); assay type: cell-based; settings: human; after 24-hour treatment; read-out: inhibition of cell viability; remark: listed apart in the source
Description: as §5, §6

MeWo cells [15] = assay: Preliminary annexin V-FITC assay (Example 7); assay type: cell-based; settings: 6-hour treatment, preliminary screen
Description: (§7) MeWo (ATCC® HTB-65™) and WM115 (ATCC® CRL-1675) cells were purchased from ATCC (Manassas, Va.) and maintained in the following: for MeWo:DMEM supplemented with 10% FBS; for WM115: RPMI 1640 supplemented with 10% FBS (10% FBS, 1% stabilized antibiotic anti-mycotic solution).
(§8) During the first set of studies, both MeWo and WM115 cells were treated with test compounds at 10 doses starting from 100 μM with 3-fold dilution. Staurosporine was used as positive control. After 6-hour treatment, cell apoptosis was assessed using an annexin V assay. The test compounds evaluated were CV-8684, CV-8685, CV-8686, CV-8687, and CV-8688.
(§9) For cell seeding, cells were harvested and the cell number was determined using Countess® cell counter. Cells were then diluted with culture medium to the desired density. 40 μL of cell suspension per well was added to the required number of wells in a 384-well plate (Corning 3712—clear bottom plate). The final cell density was 6,000 cells/well. After plating, the plates were incubated at 37° C., and 5% CO2 overnight.
(§10) For preparation of compound source plate, each test compound was dissolved in DMSO to 10 mM stock. 3-fold serial dilution was performed using an EVO200™ liquid handler (TECAN) to generate ten concentrations of test compound. 0.1% DMSO was employed as vehicle (negative) control. The compound source plate was then spun at room temperature at 1,000 RPM for 1 minute and agitated using a plate shaker for 2 minutes.
(§11) For compound treatment, 40 nL of compound were transferred from the compound source plate to the 384-well culture plate using liquid handler Echo550 (LabCyte Inc.). After 6-hour incubation, the plates were removed from the incubator for detection.
(§12) For the preliminary annexin V assay, the plates were removed from the incubator and allowed to equilibrate at room temperature for 15 minutes. Culture media was then removed. 20 μL of pre-mixed annexin V-FITC and Hoechst33342 dye working solution were added to each well. The cells were then incubated at room temperature for 20 minutes. […] Afterward, the plate was read using an Acumen eX3 plate reader. The relative activity was calculated according to the following formula: Activity (%)=100%×(CountAnnexin V/CountTotal cell), and EC50 was calculated using GraphPad Prism (v. 5.01).

WM115 cells [16] = assay: Preliminary annexin V-FITC assay (Example 7); assay type: cell-based; settings: 6-hour treatment, preliminary screen
Description: as §7, §8, §9, §10, §11, §12

yeast model = settings: cited from earlier work

For `O=Cc1c(C(c2c[nH]c3ccccc23)C2CC2)[nH]c2ccccc12` (stereo not shown) [AB12508], which EC50 ([1]; Table 1) is on record?
Its EC50 is 15.4 µM.

What about the EC50 ([1]; Table 2) of the same compound?
Its EC50 is 14.2 µM.

And the melanin concentration (MelanoDerm™ Skin Model [2])?
The melanin concentration was 25.26 µg/mL.

For `COC(=O)c1c(C(C)c2c[nH]c3ccccc23)[nH]c2ccccc12` (stereo not shown) [Compound B (CV-8877)], which EC50 ([1]; Table 2) is on record?
Its EC50 is 13.8 µM.

And the melanin concentration (MelanoDerm™ Skin Model [2])?
Its melanin concentration is 25.99 µg/mL.

Which results are given for `O=Cc1c(Cc2c[nH]c3ccccc23)[nH]c2ccccc12` [Malassezin, malassezin]?
Caspase 3/7 activation [3]: activated Caspase 3/7; Caspase 3/7 activation [4]: activated Caspase 3/7; UV protection, conclusion of the study [5]: UV-protective properties; AhR agonism [6]: known agonist; also recorded: aryl hydrocarbon receptor agonist; pigmentation of tissues (MelanoDerm™ Skin Model [7]): reduced pigmentation; EC50 ([1]; Table 2): 13.4 µM; apoptosis induction [8]: induces apoptosis; cell death (Annexin V staining) (B16F1 cells): induced cell death; cell death (Annexin V staining) (MeWo cells [9]): induced cell death; cell death (Annexin V staining) (WM115 cells [10]): induced cell death

With `CN[C@@H]1C[C@H]2O[C@@](C)([C@@H]1OC)n1c3ccccc3c3c4c(c5c6ccccc6n2c5c31)C(=O)NC4` [Staurosporine, reference compound] as the compound, how does the cell morphology (MeWo cells [11]) read?
Its cell morphology is “significantly affected”.

And the cell morphology (WM115 cells [12])?
The cell morphology was “significantly affected”.

What about the cytotoxicity at 24 h [13] of the same compound?
The cytotoxicity at 24 h was 100%.

What about the cytotoxicity at 24 h [14] of the same compound?
Its cytotoxicity at 24 h is 100%.

What about the “annexin V staining” value (MeWo cells [15]) of the same compound?
Its value is “greatly increased annexin V staining”.

And the “annexin V staining” value (WM115 cells [16])?
Its value is “greatly increased annexin V staining”.

With `O=C1OC(c2c[nH]c3ccccc23)=C(c2c[nH]c3ccccc23)C1=O` [pityrialactone, Pityrialactone] as the compound, how does the UV protective properties (yeast model) read?
Its UV protective properties is “confirmed”.
